This is an account of results in PubChem BioAssay AID328 (DTP/NCI, 2004).

Values joined by “and” are separate entries in the source; they are usually repeats but may differ in a detail not shown here. Equal values may be shown once. Toxic doses and inconclusive results are not listed.

In this assay the test system is BDF1 mice, P388 leukemia ip, median survival T/C. Put plainly: NCI In Vivo Anticancer Drug Screen. Data for tumor model P388 Leukemia (intraperitoneal) in B6D2F1 (BDF1) mice. The settings on record: endpoint: median survival time, higher = longer survival. The essentials: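 Reported as T/C, where T is the survival measurement in dosed animals and C the same measurement in vehicle controls.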

Setting [1] is: dose: 100.0 mg/kg/injection, schedule: Q01DX009 (ip), vehicle: saline with Tween-80.
Where [2] appears, read: dose: 200.0 mg/kg/injection, schedule: Q01DX009 (ip), vehicle: saline with Tween-80.
[3] abbreviates: dose: 50.0 mg/kg/injection, schedule: Q01DX009 (ip), vehicle: saline with Tween-80.
Setting [4] is: dose: 100.0 mg/kg/injection, schedule: Q04DX003 (ip), vehicle: saline with Tween-80.
[5] abbreviates: dose: 200.0 mg/kg/injection, schedule: Q04DX003 (ip), vehicle: saline with Tween-80.
Where [6] appears, read: dose: 400.0 mg/kg/injection, schedule: Q04DX003 (ip), vehicle: saline with Tween-80.

For `O=C1C(c2ccccc2)=C(c2ccccc2)C(c2ccccc2)=C1c1ccccc1`, the T/C is 88 % of control (dose: 0.78 mg/kg/injection, schedule: Q04DX003 (ip), vehicle: water); 103 % of control (dose: 1.56 mg/kg/injection, schedule: Q01DX009 (ip), vehicle: water); 95 % of control (dose: 1.56 mg/kg/injection, schedule: Q04DX003 (ip), vehicle: water); 94 % of control (dose: 3.12 mg/kg/injection, schedule: Q01DX009 (ip), vehicle: water); 88 % of control (dose: 3.12 mg/kg/injection, schedule: Q04DX003 (ip), vehicle: water); 97 % of control (dose: 6.25 mg/kg/injection, schedule: Q01DX009 (ip), vehicle: water). Besides, the T/C by setting is: (dose: 6.25 mg/kg/injection, schedule: Q04DX003 (ip), vehicle: water) 106 % of control; (dose: 12.5 mg/kg/injection, schedule: Q01DX009 (ip), vehicle: water) 94 % of control; (dose: 12.5 mg/kg/injection, schedule: Q04DX003 (ip), vehicle: water) 100 % of control; (dose: 25.0 mg/kg/injection, schedule: Q01DX009 (ip), vehicle: water) 97 % of control; (dose: 50.0 mg/kg/injection, schedule: Q01DX009 (ip), vehicle: water) 97 % of control; (dose: 100.0 mg/kg/injection, schedule: Q01DX009 (ip), vehicle: water) 101 % of control. The T/C by setting is: (dose: 200.0 mg/kg/injection, schedule: Q01DX009 (ip), vehicle: water) 91 % of control; (dose: 400.0 mg/kg/injection, schedule: Q01DX009 (ip), vehicle: water) 87 % of control.
As to `c1nc(SC2CCCC2)c2[nH]cnc2n1`, the T/C under setting [1] is 100 % of control and the T/C under setting [2] was 116 % of control.
As for `CCOCc1ccc(OCc2ccccc2)cc1`, the T/C under setting [3] was 94 % of control, the T/C under setting [1] was 108 % of control and the T/C under setting [2] was 119 % of control.
For `CC(C)CCCC(C)C1CCC2C3CC=C4CC(S[As](C)C)CCC4(C)C3CCC12C` (stereo not given) the same measures were 98 % of control, 95 % of control and 98 % of control.
For `CC(Cc1ccc2ccccc2c1)C(=O)c1ccc2ccccc2c1` (stereo not given), the T/C by setting is: (dose: 100.0 mg/kg/injection, schedule: Q01DX001 (ip), vehicle: saline with Tween-80) 100 % of control; (dose: 200.0 mg/kg/injection, schedule: Q01DX001 (ip), vehicle: saline with Tween-80) 100 % of control; (dose: 400.0 mg/kg/injection, schedule: Q01DX001 (ip), vehicle: saline with Tween-80) 100 % of control.
As for `Clc1cc(N2CC2)nc(N2CC2)n1`, the T/C is, setting by setting: (dose: 0.11 mg/kg/injection, schedule: Q01DX009 (ip), vehicle: saline) 90 % of control; (dose: 0.17 mg/kg/injection, schedule: Q01DX009 (ip), vehicle: saline) 95 % of control; (dose: 0.27 mg/kg/injection, schedule: Q01DX009 (ip), vehicle: saline) 275 % of control; (dose: 0.4 mg/kg/injection, schedule: Q01DX009 (ip), vehicle: saline) 295 % of control; (dose: 0.62 mg/kg/injection, schedule: Q01DX009 (ip), vehicle: saline) 157 % of control; (dose: 1.25 mg/kg/injection, schedule: Q01DX009 (ip), vehicle: saline) 230 % of control. For the same compound, the T/C is 109 % of control (dose: 1.56 mg/kg/injection, schedule: Q01DX001 (ip), vehicle: saline); 104 % of control (dose: 3.12 mg/kg/injection, schedule: Q04DX003 (ip), vehicle: saline); 163 % of control (dose: 6.5 mg/kg/injection, schedule: Q01DX001 (ip), vehicle: saline); 168 % of control (dose: 6.5 mg/kg/injection, schedule: Q04DX003 (ip), vehicle: saline).
Consider `CCC(c1ccccc1)C(C(=O)O)C(=O)O` (stereo not given), for which the T/C is, setting by setting: (dose: 100.0 mg/kg/injection, schedule: Q04DX002 (ip), vehicle: saline with Tween-80) 110 % of control; (dose: 200.0 mg/kg/injection, schedule: Q04DX002 (ip), vehicle: saline with Tween-80) 101 % of control; (dose: 400.0 mg/kg/injection, schedule: Q04DX002 (ip), vehicle: saline with Tween-80) 103 % of control.
For the compound `CN(N=O)C(=O)NNC(=O)N(C)N=O`, the T/C runs as follows: (dose: 40.0 mg/kg/injection, schedule: Q04DX003 (ip), vehicle: saline with Tween-80) 105 % of control; (dose: 60.0 mg/kg/injection, schedule: Q04DX003 (ip), vehicle: saline with Tween-80) 115 % of control; (dose: 90.0 mg/kg/injection, schedule: Q04DX003 (ip), vehicle: saline with Tween-80) 105 % of control.
As to `CCCCCCCCN1CCCNCC1`, under “dose: 25.0 mg/kg/injection, schedule: Q01DX009 (ip), vehicle: saline”, the T/C was 100 % of control.
Consider `O=C(O)CCc1c[nH]c2ccc(N(CCCl)CCCl)cc12`, for which the T/C runs as follows: (dose: 0.04 mg/kg/injection, schedule: Q04DX003 (ip), vehicle: saline with Tween-80) 109 % of control; (dose: 0.08 mg/kg/injection, schedule: Q04DX003 (ip), vehicle: saline with Tween-80) 109 % of control; (dose: 0.5 mg/kg/injection, schedule: Q04DX003 (ip), vehicle: saline with Tween-80) 158 % of control; (dose: 0.5 mg/kg/injection, schedule: Q04DX003 (ip), vehicle: saline) 231 % of control; (dose: 0.75 mg/kg/injection, schedule: Q04DX003 (ip), vehicle: saline with Tween-80) 154 % of control; (dose: 1.0 mg/kg/injection, schedule: Q04DX003 (ip), vehicle: saline) 90 % of control.
As for `c1ccc(-c2nnc3oc(-c4ccco4)nn23)cc1`, the T/C runs as follows: under setting [1], 91 % of control; under setting [4], 90 % of control; under setting [2], 108 % of control; under setting [5], 100 % of control; (dose: 400.0 mg/kg/injection, schedule: Q01DX009 (ip), vehicle: saline with Tween-80) 100 % of control; under setting [6], 95 % of control.
Take `CCNC(=O)OCc1cnc(C)c(OC(=O)NCC)c1COC(=O)NCC`: the T/C is, setting by setting: (dose: 25.0 mg/kg/injection, schedule: Q01DX005 (ip), vehicle: saline with Tween-80) 98 % of control; (dose: 50.0 mg/kg/injection, schedule: Q01DX005 (ip), vehicle: saline with Tween-80) 110 % of control; (dose: 100.0 mg/kg/injection, schedule: Q01DX005 (ip), vehicle: saline with Tween-80) 100 % of control; (dose: 200.0 mg/kg/injection, schedule: Q01DX005 (ip), vehicle: saline with Tween-80) 101 % of control.
`Cc1ccc2c(c1)=N/C(=N\c1nc(O)c(O)[nH]1)N=2`: the T/C reads like this: (dose: 60.0 mg/kg/injection, schedule: Q01DX009 (ip), vehicle: Klucel (hydroxypropylcellulose) (HPC)) 98 % of control; (dose: 66.0 mg/kg/injection, schedule: Q01DX009 (ip), vehicle: Klucel (hydroxypropylcellulose) (HPC)) 106 % of control; (dose: 100.0 mg/kg/injection, schedule: Q01DX009 (ip), vehicle: Klucel (hydroxypropylcellulose) (HPC)) 103 % of control and 118 % of control; (dose: 100.0 mg/kg/injection, schedule: Q04DX003 (ip), vehicle: Klucel (hydroxypropylcellulose) (HPC)) 104 % of control; (dose: 140.0 mg/kg/injection, schedule: Q01DX009 (ip), vehicle: Klucel (hydroxypropylcellulose) (HPC)) 97 % of control; (dose: 150.0 mg/kg/injection, schedule: Q01DX009 (ip), vehicle: Klucel (hydroxypropylcellulose) (HPC)) 168 % of control. Further, the T/C runs as follows: (dose: 200.0 mg/kg/injection, schedule: Q01DX009 (ip), vehicle: Klucel (hydroxypropylcellulose) (HPC)) 116 % of control; (dose: 200.0 mg/kg/injection, schedule: Q04DX003 (ip), vehicle: Klucel (hydroxypropylcellulose) (HPC)) 100 % of control; (dose: 400.0 mg/kg/injection, schedule: Q01DX009 (ip), vehicle: Klucel (hydroxypropylcellulose) (HPC)) 111 % of control; (dose: 400.0 mg/kg/injection, schedule: Q04DX003 (ip), vehicle: Klucel (hydroxypropylcellulose) (HPC)) 95 % of control.
Turning to `N#CCc1ccc([N+](=O)[O-])cc1`, the T/C by setting is: (dose: 6.25 mg/kg/injection, schedule: Q01DX009 (ip), vehicle: Klucel (hydroxypropylcellulose) (HPC)) 100 % of control; (dose: 12.5 mg/kg/injection, schedule: Q01DX009 (ip), vehicle: Klucel (hydroxypropylcellulose) (HPC)) 91 % of control; (dose: 12.5 mg/kg/injection, schedule: Q04DX003 (ip), vehicle: Klucel (hydroxypropylcellulose) (HPC)) 104 % of control; (dose: 25.0 mg/kg/injection, schedule: Q04DX003 (ip), vehicle: Klucel (hydroxypropylcellulose) (HPC)) 117 % of control.
In the case of `O=Cc1csc2ncccc12`, the T/C runs as follows: under setting [4], 91 % of control; under setting [5], 100 % of control; under setting [6], 95 % of control.
